Assay results from patent EP0210342A2, “Medicament containing pyridinones having an antithrombotic activity” (Dr. Karl Thomae GmbH, priority 1985, dated 1987).

Legend:
Thrombusbildung = assay: Stenosis-induced spontaneous coronary thrombus formation in anaesthetised dogs (shake loose, Folts); assay type: in vivo, Hunde; conditions: for antithrombotische Wirkung: 1 mg/kg; for Verminderung der Häufigkeit der Spontanverschlüsse: 1 mg/kg i.v.
[1] = Acute toxicity in mice (LD50, 14 days observation); set-up: species or system Mäusen; conditions: mouse, in vivo, observation 14 days
Excerpt: Die akute Toxizität der zu untersuchenden Substanzen wurde an Mäusen (Beobachtungszeit: 14 Tage) nach oraler bzw. intravenöser Gabe bestimmt. Es wurde die LD₅₀ aus dem Prozentsatz der Tiere berechnet, die nach verschiedenen Dosen innerhalb der Beobachtungszeit verstarben: […]

## CC(C)NCC(O)COc1ccc(CC(N)=O)cc1 (stereo not drawn) [Atenolol, reference compound]
Thrombusbildung
  antithrombotische Wirkung: nicht antithrombotisch

## COc1ccc2nc(-c3ccc(OCC(O)CNC(C)(C)C)cc3)n(C)c(=O)c2c1 (stereo not drawn) [Verbindung B, 2-[4-(2-Hydroxy-3-tert.butylamino-propoxy)-phenyl]-3-methyl-6-methoxy-3,4-dihydro-chinazolin-4-on]
[1]; iv
  LD50 at 336 h: 75 mg/kg
[1]; po
  LD50 at 336 h: 750 mg/kg

## COc1ccc2nc(-c3ccc(OCC(O)CNC(C)(C)C)cc3)n(C)c(=O)c2c1 (single isomer, unassigned; (-)) [Verbindung C, (-)-2-2[4-(2-Hydroxy-3-tert.butylamino-propoxy)-phenyl]-3-methyl-6-methoxy-3,4-dihydro-chinazolin-4-on]
Thrombusbildung; 30th to 60th minute after substance
  Verminderung der Häufigkeit der Spontanverschlüsse: 73%
Thrombusbildung; first 30 min after substance
  Verminderung der Häufigkeit der Spontanverschlüsse: 55%

## CC(C)NCC(O)COc1cccc2ccccc12 (stereo not drawn) [Propranolol, reference compound]
Thrombusbildung
  antithrombotische Wirkung: nicht antithrombotisch
